According to ChEMBL document CHEMBL3526130, “An evaluation of using rat-derived single-dose neuropharmacokinetic parameters to project accurately large animal unbound brain drug concentrations” (Drug Metab Dispos, 2012):
Blank lines part the entries; values can stand above or below the molecule they belong to.

Assays:
[1] = AUC(0 to 7 hrs) in Sprague-Dawley rat plasma at 35 mg/kg, sc by LC-MS/MS analysis; type: ADME, organism-based; design: time < 7 hr, dose 35 mg/kg, route subcutaneous
[2] = AUC(0 to infinity) in Sprague-Dawley rat plasma at 35 mg/kg, sc by LC-MS/MS analysis; type: ADME, organism-based; design: time infinity, dose 35 mg/kg, route subcutaneous
[3] = AUC(0 to 7 hrs) in Sprague-Dawley rat cerebrospinal fluid at 35 mg/kg, sc by LC-MS/MS analysis; type: ADME, organism-based; design: time < 7 hr, dose 35 mg/kg, route subcutaneous
[4] = AUC(0 to infinity) in Sprague-Dawley rat cerebrospinal fluid at 35 mg/kg, sc by LC-MS/MS analysis; type: ADME, organism-based; design: dose 35 mg/kg, route subcutaneous, time infinity
Nucleic Acid [5] = experiment: Ratio of drug level in brain to plasma in Sprague-Dawley rat at 35 mg/kg, sc by LC-MS/MS analysis; type: ADME, organism-based; design: dose 35 mg/kg, route subcutaneous
Nucleic Acid [6] = experiment: Ratio of drug level in cerebrospinal fluid to unbound plasma concentration in Sprague-Dawley rat at 35 mg/kg, sc by LC-MS/MS analysis; type: ADME, organism-based; design: dose 35 mg/kg, route subcutaneous; settings: in vivo
[7] = Ratio of unbound brain concentration to drug level in cerebrospinal fluid in Sprague-Dawley rat at 35 mg/kg, sc by LC-MS/MS analysis; type: ADME, organism-based; design: dose 35 mg/kg, route subcutaneous; settings: in vivo
[8] = Ratio of unbound drug level in brain to plasma in Sprague-Dawley rat at 35 mg/kg, sc by LC-MS/MS analysis; type: ADME, organism-based; design: dose 35 mg/kg, route subcutaneous
[9] = AUC(0 to 7 hrs) in Sprague-Dawley rat brain at 35 mg/kg, sc by LC-MS/MS analysis; type: ADME, organism-based; design: time < 7 hr, dose 35 mg/kg, route subcutaneous
[10] = AUC(0 to infinity) in Sprague-Dawley rat brain at 35 mg/kg, sc by LC-MS/MS analysis; type: ADME, organism-based; design: dose 35 mg/kg, route subcutaneous, time infinity
[11] = AUC(0 to 2 hrs) in Beagle dog plasma at 0.1 mg/kg, sc by LC-MS/MS analysis; type: ADME, organism-based, Canis lupus familiaris; design: time < 2 hr, dose 0.1 mg/kg, route subcutaneous
[12] = AUC(0 to 1 hr) in cynomolgus monkey plasma at 0.1 mg/kg, sc by LC-MS/MS analysis; type: ADME, organism-based, Macaca fascicularis; design: time < 1 hr, dose 0.1 mg/kg, route subcutaneous
[13] = AUC(0 to 2 hrs) in Beagle dog cerebrospinal fluid at 0.1 mg/kg, sc by LC-MS/MS analysis; type: ADME, organism-based, Canis lupus familiaris; design: time < 2 hr, dose 0.1 mg/kg, route subcutaneous
[14] = AUC(0 to 2 hrs) in Sprague-Dawley rat plasma at 1 mg/kg, sc by LC-MS/MS analysis; type: ADME, organism-based; design: time < 2 hr, dose 1 mg/kg, route subcutaneous
[15] = AUC(0 to infinity) in Sprague-Dawley rat plasma at 1 mg/kg, sc by LC-MS/MS analysis; type: ADME, organism-based; design: time infinity, dose 1 mg/kg, route subcutaneous
[16] = AUC(0 to 2 hrs) in Sprague-Dawley rat cerebrospinal fluid at 1 mg/kg, sc by LC-MS/MS analysis; type: ADME, organism-based; design: time < 2 hr, dose 1 mg/kg, route subcutaneous
[17] = AUC(0 to infinity) in Sprague-Dawley rat cerebrospinal fluid at 1 mg/kg, sc by LC-MS/MS analysis; type: ADME, organism-based; design: time infinity, dose 1 mg/kg, route subcutaneous
[18] = Ratio of drug level in brain to plasma in Sprague-Dawley rat at 1 mg/kg, sc by LC-MS/MS analysis; type: ADME, organism-based; design: dose 1 mg/kg, route subcutaneous; settings: read-out: BPR
Nucleic Acid [19] = experiment: Ratio of drug level in cerebrospinal fluid to unbound plasma concentration in Sprague-Dawley rat at 1 mg/kg, sc by LC-MS/MS analysis; type: ADME, organism-based; design: dose 1 mg/kg, route subcutaneous; settings: in vivo
[20] = Ratio of unbound brain concentration to drug level in cerebrospinal fluid in Sprague-Dawley rat at 1 mg/kg, sc by LC-MS/MS analysis; type: ADME, organism-based; design: dose 1 mg/kg, route subcutaneous; settings: in vivo
[21] = Ratio of unbound drug level in brain to plasma in Sprague-Dawley rat at 1 mg/kg, sc by LC-MS/MS analysis; type: ADME, organism-based; design: dose 1 mg/kg, route subcutaneous
[22] = Unbound fraction in cynomolgus monkey plasma at 0.1 mg/kg, sc by LC-MS/MS analysis; type: ADME, organism-based, Macaca fascicularis; design: dose 0.1 mg/kg, route subcutaneous
[23] = Unbound fraction in cynomolgus monkey brain at 0.1 mg/kg, sc by LC-MS/MS analysis; type: ADME, organism-based, Macaca fascicularis; design: dose 0.1 mg/kg, route subcutaneous
[24] = Unbound fraction in Beagle dog plasma at 0.1 mg/kg, sc by LC-MS/MS analysis; type: ADME, organism-based, Canis lupus familiaris; design: dose 0.1 mg/kg, route subcutaneous
[25] = Unbound fraction in Beagle dog brain at 0.1 mg/kg, sc by LC-MS/MS analysis
[26] = AUC(0 to 2 hrs) in Sprague-Dawley rat brain at 1 mg/kg, sc by LC-MS/MS analysis; type: ADME, organism-based; design: time < 2 hr, dose 1 mg/kg, route subcutaneous
[27] = AUC(0 to infinity) in Sprague-Dawley rat brain at 1 mg/kg, sc by LC-MS/MS analysis; type: ADME, organism-based; design: time infinity, dose 1 mg/kg, route subcutaneous
[28] = Ratio of unbound brain concentration to drug level in cerebrospinal fluid in Beagle dog at 0.1 mg/kg, sc by LC-MS/MS analysis; type: ADME, organism-based, Canis lupus familiaris; design: dose 0.1 mg/kg, route subcutaneous; settings: in vivo
[29] = Ratio of unbound drug level in brain to plasma in cynomolgus monkey at 0.1 mg/kg, sc by LC-MS/MS analysis; type: ADME, organism-based, Macaca fascicularis; design: dose 0.1 mg/kg, route subcutaneous; settings: brain and plasma
[30] = Ratio of unbound drug level in brain to plasma in Beagle dog at 0.1 mg/kg, sc by LC-MS/MS analysis; type: ADME, organism-based, Canis lupus familiaris; design: dose 0.1 mg/kg, route subcutaneous; settings: brain and plasma
[31] = AUC(0 to 1 hr) in cynomolgus monkey cerebrospinal fluid at 0.1 mg/kg, sc by LC-MS/MS analysis; type: ADME, organism-based, Macaca fascicularis; design: time < 1 hr, dose 0.1 mg/kg, route subcutaneous
[32] = AUC(0 to 2 hrs) in Beagle dog brain at 0.1 mg/kg, sc by LC-MS/MS analysis; type: ADME, organism-based, Canis lupus familiaris; design: time < 2 hr, dose 0.1 mg/kg, route subcutaneous
[33] = AUC(0 to 1 hr) in cynomolgus monkey brain at 0.1 mg/kg, sc by LC-MS/MS analysis; type: ADME, organism-based, Macaca fascicularis; design: time < 1 hr, dose 0.1 mg/kg, route subcutaneous
[34] = Ratio of drug level in brain to plasma in cynomolgus monkey at 0.1 mg/kg, sc by LC-MS/MS analysis; type: ADME, organism-based, Macaca fascicularis; design: dose 0.1 mg/kg, route subcutaneous; settings: brain and plasma, read-out: BPR
[35] = Ratio of drug level in brain to plasma in Beagle dog at 0.1 mg/kg, sc by LC-MS/MS analysis; type: ADME, organism-based, Canis lupus familiaris; design: dose 0.1 mg/kg, route subcutaneous; settings: brain and plasma, read-out: BPR
Nucleic Acid [36] = experiment: Ratio of drug level in cerebrospinal fluid to unbound plasma concentration in cynomolgus monkey at 0.1 mg/kg, sc by LC-MS/MS analysis; type: ADME, organism-based, Macaca fascicularis; design: dose 0.1 mg/kg, route subcutaneous; settings: in vivo
[37] = Ratio of unbound brain concentration to drug level in cerebrospinal fluid in cynomolgus monkey at 0.1 mg/kg, sc by LC-MS/MS analysis; type: ADME, organism-based, Macaca fascicularis; design: dose 0.1 mg/kg, route subcutaneous; settings: in vivo

- AUC(0-t) at 7 h [1]: 4920 ng·h/mL
- AUC(0-inf) [2]: 5310 ng·h/mL
- AUC(0-t) at 7 h [3]: 302 ng·h/mL
- AUC(0-inf) [4]: 304 ng·h/mL
- BPR (Nucleic Acid [5]): 0.38
- Ratio (Nucleic Acid [6]): 0.23
- Ratio [7]: 0.22
- Kp uu [8]: 0.05
- AUC(0-t) at 7 h [9]: 1850 ng·h/mL
- AUC(0-inf) [10]: 1880 ng·h/mL
SMILES: C=C[C@H]1C[N@@]2CC[C@H]1C[C@@H]2[C@@H](O)c1ccnc2ccc(OC)cc12 [QUINIDINE]

SMILES: Cc1nc2n(c(=O)c1CCN1CCC(c3noc4cc(F)ccc34)CC1)CCCC2 [RISPERIDONE]
- AUC(0-t) at 2 h [11]: 71.2 ng·h/mL
- AUC(0-t) at 1 h [12]: 27.6 ng·h/mL
- AUC(0-t) at 2 h [13]: 3.48 ng·h/mL
- AUC(0-t) at 2 h [14]: 409 ng·h/mL
- AUC(0-inf) [15]: 441 ng·h/mL
- AUC(0-t) at 2 h [16]: 11.3 ng·h/mL
- AUC(0-inf) [17]: 11.9 ng·h/mL
- Kp [18]: 0.26
- Ratio (Nucleic Acid [19]): 0.35
- Ratio [20]: 0.67
- Kp uu [21]: 0.23
- fraction unbound [22]: 0.084
- fraction unbound [23]: 0.0919
- fraction unbound [24]: 0.083
- fraction unbound [25]: 0.0809
- AUC(0-t) at 2 h [26]: 108 ng·h/mL
- AUC(0-inf) [27]: 130 ng·h/mL
- Ratio [28]: 1.67
- Kp uu [29]: 0.89
- Kp uu [30]: 0.99
- AUC(0-t) at 1 h [31]: 1.14 ng·h/mL
- AUC(0-t) at 2 h [32]: 72 ng·h/mL
- AUC(0-t) at 1 h [33]: 22.6 ng·h/mL
- Kp [34]: 0.82
- Kp [35]: 1.01
- Ratio (Nucleic Acid [36]): 0.49
- Ratio [37]: 1.82
